1 molecule from patent publication US6723750B2, “Photodynamic therapy for pre-melanomas” (Allergan, Inc., priority 2002, dated 2004) can be followed below.

The subject of this experiment is pre-melanoma. Nature of the experiment: Photodynamic therapy of pre-melanoma around the excision site after surgical melanoma removal (patient case examples). In kind it is in vivo, human.

Description: The melanoma is surgically removed and the patient is treated for pre-melanoma using photodynamic therapy. The area around the point of excision of the melanoma is contacted with a composition which includes aminolevulinic acid methyl ester at about a 10% (w/w) and a penetrating agent, DMSO, at a concentration of about 10% (w/w). The composition is applied directly to and around the site of excision of the melanoma covering an area of approximately 100 cm^2. The application is repeated once an hour for an 8 hour period. The area is then exposed to light in the wavelength range of about 500 to about 700 nm for approximately 10 hours.
The melanoma is surgically removed and the patient is treated for pre-melanoma using photodynamic therapy. The area around the point of excision of the melanoma is contacted with an ointment which includes amino levulinic acid methyl ester at about 5% (w/w) and a penetrating agent, DMSO, at a concentration of about 15% (w/w). The ointment is applied directly to and around the site of excision of the melanoma. The site of application is covered with a semi-permeable membrane for 24 hours after which the application is repeated and again covered for a 24 hour period. The area is then exposed to light in the wavelength range of about 610 nm to about 670 nm for approximately 2 hours once a day for four straight days. […]

With `COC(=O)CCC(=O)CN` [aminolevulinic acid methyl ester], the “cancer status of patient after treatment” value (Example 3: thigh, superficial spreading melanoma removed, about 10% (w/w) with DMSO about 10% (w/w), topical, once an hour for 8 hours, light about 500 to about 700 nm approx. 10 hours, at one year after treatment) is recorded as “no sign of cancer”. Also, the “cancer status of patient after surgery and treatment” value (Example 6: foot, acral lentiginous melanoma removed, ointment about 5% (w/w) with DMSO about 15% (w/w), two 24 hour applications, light about 610 nm to about 670 nm approx. 2 hours once a day for four days, two years after surgery) is “no sign of the cancer”.
